Experiment [1] in a line: A cytotoxicity screen of small molecule inhibitors of the PhoP region in Salmonella typhi identified in the primary screen. [Related pubchem assays: 1850, 1864, 1985 ]. It counts as functional.
Another experiment concerns the target T1, Leucine aminopeptidase (Plasmodium falciparum 3D7, UniProt Q8IL11).
T1 sequence (Q8IL11 whole entry): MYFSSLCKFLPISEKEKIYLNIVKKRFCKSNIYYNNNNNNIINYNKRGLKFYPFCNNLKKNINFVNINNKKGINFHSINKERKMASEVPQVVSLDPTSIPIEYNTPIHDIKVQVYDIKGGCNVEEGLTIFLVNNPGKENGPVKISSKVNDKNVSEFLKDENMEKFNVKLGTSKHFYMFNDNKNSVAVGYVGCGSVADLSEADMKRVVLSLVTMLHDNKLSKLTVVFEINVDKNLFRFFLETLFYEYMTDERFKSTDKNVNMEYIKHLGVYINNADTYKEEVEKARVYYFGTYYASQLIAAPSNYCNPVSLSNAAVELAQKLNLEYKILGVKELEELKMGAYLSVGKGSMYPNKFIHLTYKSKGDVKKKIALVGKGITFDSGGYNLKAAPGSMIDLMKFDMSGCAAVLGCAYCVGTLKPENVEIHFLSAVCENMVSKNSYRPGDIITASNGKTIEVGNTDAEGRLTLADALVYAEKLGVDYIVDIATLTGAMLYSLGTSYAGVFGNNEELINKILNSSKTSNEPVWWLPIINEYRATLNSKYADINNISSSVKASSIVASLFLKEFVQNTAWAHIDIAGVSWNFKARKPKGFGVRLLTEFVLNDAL
Briefly: P. falciparum M17LAP inhibitors, primary screen, biochemical, fluorogenic H-Leu-NHMec substrate, 1536-well (AID 1619). The format is functional.

In the next experiment the target is T2, Aspartyl aminopeptidase (Plasmodium falciparum 3D7, UniProt Q8I2J3).
T2 sequence (Q8I2J3 whole entry): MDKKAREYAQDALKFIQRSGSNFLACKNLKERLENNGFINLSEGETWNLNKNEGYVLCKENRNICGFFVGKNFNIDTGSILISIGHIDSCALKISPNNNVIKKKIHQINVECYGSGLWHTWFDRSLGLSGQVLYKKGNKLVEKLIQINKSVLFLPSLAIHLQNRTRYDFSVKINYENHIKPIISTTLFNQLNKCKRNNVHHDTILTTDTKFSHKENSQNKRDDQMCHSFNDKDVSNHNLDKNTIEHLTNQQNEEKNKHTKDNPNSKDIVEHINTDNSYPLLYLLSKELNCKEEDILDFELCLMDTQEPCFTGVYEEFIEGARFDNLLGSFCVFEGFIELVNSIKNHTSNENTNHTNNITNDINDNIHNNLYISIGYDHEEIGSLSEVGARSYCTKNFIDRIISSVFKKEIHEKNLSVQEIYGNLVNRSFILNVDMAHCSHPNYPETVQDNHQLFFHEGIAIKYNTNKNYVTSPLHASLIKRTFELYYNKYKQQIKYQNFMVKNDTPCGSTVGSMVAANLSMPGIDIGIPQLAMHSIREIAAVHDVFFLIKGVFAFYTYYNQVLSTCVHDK
Briefly: Counterscreen for inhibitors of M1 and M17 aminopeptidases: QFRET-based biochemical high throughput dose response assay for inhibitors of the Plasmodium falciparum M18 Aspartyl Aminopeptidase (PFM18AAP). [Related PubChem assays: 1619 (Screening assay (M17LAP inhibitors).), 1445 (Screening assay (M1AAP inhibitors).)]. (In general: A counterscreen serves to expose hits that act by an unwanted route or on another target.)

Another experiment has as its target Procathepsin L (Homo sapiens, UniProt P07711). Briefly: cathepsin L inhibitors, dose response, counter-screen for M1/M17 aminopeptidase inhibitor project, biochemical, QFRET, 1536-well (AID 2214).
Experiment [2] addresses T3, Acyl-homoserine lactone acylase PvdQ (Pseudomonas aeruginosa (strain LESB58), UniProt Q9I194).
T3 sequence (Q9I194 whole entry): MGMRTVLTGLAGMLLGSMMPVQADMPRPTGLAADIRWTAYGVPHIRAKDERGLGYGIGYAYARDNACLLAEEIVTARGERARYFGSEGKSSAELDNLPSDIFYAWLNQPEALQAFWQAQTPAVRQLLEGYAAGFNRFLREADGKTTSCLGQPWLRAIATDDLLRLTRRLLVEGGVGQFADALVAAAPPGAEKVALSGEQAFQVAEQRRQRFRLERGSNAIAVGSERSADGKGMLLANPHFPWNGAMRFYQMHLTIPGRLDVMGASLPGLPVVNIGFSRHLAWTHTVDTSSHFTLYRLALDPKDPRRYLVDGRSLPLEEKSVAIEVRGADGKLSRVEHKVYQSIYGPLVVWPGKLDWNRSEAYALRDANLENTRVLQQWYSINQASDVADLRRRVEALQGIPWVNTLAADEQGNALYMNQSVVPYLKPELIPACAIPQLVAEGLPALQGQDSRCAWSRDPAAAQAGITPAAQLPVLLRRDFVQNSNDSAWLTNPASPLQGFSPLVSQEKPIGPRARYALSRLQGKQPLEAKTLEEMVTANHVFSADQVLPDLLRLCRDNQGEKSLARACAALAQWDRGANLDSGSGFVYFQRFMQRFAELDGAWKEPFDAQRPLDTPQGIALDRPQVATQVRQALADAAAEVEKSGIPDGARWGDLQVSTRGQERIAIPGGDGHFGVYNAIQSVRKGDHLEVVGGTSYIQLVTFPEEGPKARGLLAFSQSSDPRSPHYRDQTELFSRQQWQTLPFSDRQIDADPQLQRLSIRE
The experiment in a line: P. aeruginosa PvdQ acylase inhibitors, dose response, biochemical, fluorescence, plate reader and imaging, cherry-picks (AID 493231).

Experiment [3] addresses T4, Ubiquitin-conjugating enzyme E2 N (Homo sapiens, UniProt P61088).
T4 sequence (P61088 whole entry): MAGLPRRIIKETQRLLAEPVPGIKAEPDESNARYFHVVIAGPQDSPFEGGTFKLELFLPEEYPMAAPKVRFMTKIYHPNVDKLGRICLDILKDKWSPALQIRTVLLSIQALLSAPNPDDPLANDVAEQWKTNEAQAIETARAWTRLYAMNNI
The format is functional.

A short description of experiment [4]: inhibitors of intracellular T. cruzi replication, confirmation, NIH3T3 host cells, beta-gal luminescence (AID 2044).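 Further: intracellular parasites grown in NIH/3T3 mouse fibroblasts as host cells; luminescent beta-galactosidase reporter signal from transgenic T. cruzi replicating inside host cells; inhibitors lower the luminescence signal.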 The format is functional, cell-based.
The nature of experiment [5]: cytotoxicity toward NIH3T3 fibroblasts, dose response, counter-screen, cell-based, ATP luminescence, mouse fibroblasts (AID 2010).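 Further: cells exposed to compound for about 90 hours before reading.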 The format is functional.
Experiment [6] concerns the target Eukaryotic translation initiation factor 4H (Homo sapiens, UniProt Q15056). The experiment in a line: human eIF4H binding inhibitors, primary screen, translation initiation inhibitor project, biochemical, uHTS, fluorescence polarization (AID 2012). A general note: Fluorescence polarisation rises when a labelled molecule tumbles more slowly, as on binding a larger partner.

Experiment [7] has as its target Polyadenylate-binding protein 1 (Homo sapiens, UniProt P11940). Briefly: PABP poly(A) RNA binding inhibitors, primary screen, biochemical, fluorescence polarization, uHTS (AID 2014).
Experiment [8] has as its target Eukaryotic translation initiation factor 4E (Mus musculus, UniProt P63073). Briefly: eIF4E–eIF4G protein interaction inhibitors, dose response, biochemical, TR-FRET (AID 855).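 Further: potency for disrupting eIF4E binding to eIF4GI seen as loss of FRET.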 It counts as functional.
The target in experiment [9] is Luciferin 4-monooxygenase (Photinus pyralis, UniProt P08659). The experiment in a line: Counter Screen for Luciferase-based Assay Positives. [Related pubchem assays: 620, 618, 411 ].
Sequence of Luciferin 4-monooxygenase (P08659 whole entry): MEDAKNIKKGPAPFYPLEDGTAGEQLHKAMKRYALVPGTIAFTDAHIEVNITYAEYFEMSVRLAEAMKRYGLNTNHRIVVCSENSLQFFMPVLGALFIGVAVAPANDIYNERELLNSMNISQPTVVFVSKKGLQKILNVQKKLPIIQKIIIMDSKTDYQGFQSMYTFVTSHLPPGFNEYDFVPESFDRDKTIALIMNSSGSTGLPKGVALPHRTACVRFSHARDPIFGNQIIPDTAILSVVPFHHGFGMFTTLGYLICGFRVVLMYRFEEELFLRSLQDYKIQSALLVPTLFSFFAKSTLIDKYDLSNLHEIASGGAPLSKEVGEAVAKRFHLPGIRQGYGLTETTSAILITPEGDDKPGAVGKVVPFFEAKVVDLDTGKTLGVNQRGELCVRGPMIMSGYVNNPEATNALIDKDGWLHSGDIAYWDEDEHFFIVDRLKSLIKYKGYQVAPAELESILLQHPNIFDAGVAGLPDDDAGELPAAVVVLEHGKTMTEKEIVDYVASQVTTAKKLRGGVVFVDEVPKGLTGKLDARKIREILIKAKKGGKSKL
The next experiment deals with HT-1080. Briefly: cytotoxicity in HT1080 fibrosarcoma cells, cell-based, fluorescence readout (AID 620). To be noted: Homo sapiens. The format is functional.
Another experiment deals with HEK293. The experiment in a line: inhibitors of LMP1-driven NF-kB reporter, dose response, cell-based, HEK293, luciferase, cherry-pick (AID 588343). It counts as functional. The conditions noted are these: Homo sapiens.
A short description of experiment [10]: inhibitors of firefly luciferase expression or activity, dose response, H4 neuroglioma cells, luminescence (AID 1990). The format is functional, cell-based.
Experiment [11] can be described thus: luciferase reporter signal reduction – luminescence, H4-C neuroglioblastoma cells, dose response (AID 2458).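 Further: H4 neuroglioblastoma cells stably carrying a luciferase reporter gene fusion.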 It counts as functional, cell-based. (In a reporter assay the amount or activity of a reporter protein is the signal.)
Experiment [12] concerns BJ. Briefly: cytotoxicity toward BJ-TERT fibroblasts, dose response, cell-based, RAS-independent, luminescence (AID 1933). The conditions noted are these: Homo sapiens. It counts as functional.
The nature of the next experiment: cells. The format is functional, cell-based.
Experiment [13] is described as follows: inhibitors of SNCA 5'UTR-driven reporter translation, confirmation, H4 neuroglioma cells, luminescence (AID 1988). It counts as functional, cell-based.
Experiment [14] deals with BJ. Briefly: cells. The conditions noted are these: Homo sapiens. The format is functional, cell-based.
Experiment [15] can be described thus: cytotoxicity toward DRD oncogenic fibroblasts, dose response, cell-based, non-viral oncogenic, luminescence (AID 1934). It counts as functional. To be noted: Homo sapiens.
The nature of experiment [16]: inhibitors of SNCA 5'UTR-driven translation, confirmation, luminescence, H4 neuroglioblastoma cells, dose confirmation (AID 2454).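 Further: H4 neuroglioblastoma cells carrying an alpha-synuclein 5'UTR luciferase reporter; potency for inhibition of the luciferase signal.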 The format is functional, cell-based.
A short description of experiment [17]: cytotoxicity in HEK-293T cells, dose response, cytotoxicity control for TCR NF-kB inhibitor project, luminescence, T-cell screen hits (AID 489026).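 Further: cells exposed to compound about 14 hours before the viability readout.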 The format is functional, cell-based.
The target in another experiment is T5, CAAX prenyl protease 2 (Homo sapiens, UniProt Q9Y256).
T5 sequence (Q9Y256 whole entry): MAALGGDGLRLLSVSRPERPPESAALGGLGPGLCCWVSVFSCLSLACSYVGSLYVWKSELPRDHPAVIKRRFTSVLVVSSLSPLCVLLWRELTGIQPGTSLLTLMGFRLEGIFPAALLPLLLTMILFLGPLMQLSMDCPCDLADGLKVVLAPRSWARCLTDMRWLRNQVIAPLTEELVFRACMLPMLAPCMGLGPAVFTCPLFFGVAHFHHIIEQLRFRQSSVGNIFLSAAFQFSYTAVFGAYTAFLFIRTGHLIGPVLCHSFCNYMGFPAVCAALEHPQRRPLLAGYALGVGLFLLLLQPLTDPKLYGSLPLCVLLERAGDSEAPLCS
The experiment in a line: human Rce1 protease inhibitors, dose response, biochemical, yeast membranes, quenched-peptide fluorescence, cherry-pick (AID 588849).

Experimental findings from ChEMBL document CHEMBL1201862, “PubChem BioAssay data set” (2004) are described below.

Activity calls are given as the source filed them. Bounds are passed on as bounds.

Sequence of Procathepsin L (P07711 whole entry): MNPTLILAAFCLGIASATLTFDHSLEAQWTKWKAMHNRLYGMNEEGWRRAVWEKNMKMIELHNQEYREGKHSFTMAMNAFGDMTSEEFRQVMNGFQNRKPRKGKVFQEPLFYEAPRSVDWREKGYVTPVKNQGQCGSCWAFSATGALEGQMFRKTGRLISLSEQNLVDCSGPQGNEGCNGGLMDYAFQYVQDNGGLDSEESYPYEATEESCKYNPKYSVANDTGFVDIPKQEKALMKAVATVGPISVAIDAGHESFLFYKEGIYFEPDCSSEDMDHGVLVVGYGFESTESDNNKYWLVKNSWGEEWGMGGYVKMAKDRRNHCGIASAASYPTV
Sequence of Polyadenylate-binding protein 1 (P11940 whole entry): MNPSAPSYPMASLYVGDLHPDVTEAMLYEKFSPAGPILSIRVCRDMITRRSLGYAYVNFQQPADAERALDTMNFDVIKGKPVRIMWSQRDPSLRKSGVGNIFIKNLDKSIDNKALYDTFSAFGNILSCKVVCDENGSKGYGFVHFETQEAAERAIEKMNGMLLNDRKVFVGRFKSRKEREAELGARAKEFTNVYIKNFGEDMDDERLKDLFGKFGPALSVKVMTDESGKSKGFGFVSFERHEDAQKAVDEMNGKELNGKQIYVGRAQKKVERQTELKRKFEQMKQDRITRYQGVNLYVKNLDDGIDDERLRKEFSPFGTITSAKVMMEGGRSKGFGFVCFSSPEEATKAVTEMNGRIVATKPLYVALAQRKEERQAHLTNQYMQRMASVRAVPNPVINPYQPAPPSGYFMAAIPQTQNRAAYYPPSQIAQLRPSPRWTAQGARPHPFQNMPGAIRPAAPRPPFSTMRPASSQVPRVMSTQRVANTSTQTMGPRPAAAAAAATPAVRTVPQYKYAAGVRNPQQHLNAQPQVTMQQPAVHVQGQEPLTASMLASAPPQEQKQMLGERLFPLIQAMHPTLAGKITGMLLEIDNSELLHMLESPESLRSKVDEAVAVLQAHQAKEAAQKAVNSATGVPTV
Sequence of Eukaryotic translation initiation factor 4E (P63073 whole entry): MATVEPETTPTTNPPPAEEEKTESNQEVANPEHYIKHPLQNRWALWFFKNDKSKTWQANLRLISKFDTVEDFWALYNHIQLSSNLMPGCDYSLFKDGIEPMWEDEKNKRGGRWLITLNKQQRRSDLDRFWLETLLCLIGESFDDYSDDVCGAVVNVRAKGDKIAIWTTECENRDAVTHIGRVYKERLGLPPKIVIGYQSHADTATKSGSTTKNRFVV

Usually EC50 stands for the concentration needed to bring the measured effect to its halfway point. Consider `O=C(CSc1nnc(-c2ccccc2)n1-c1ccc(Cl)cc1)NC1CCS(=O)(=O)C1` (configuration not stated), for which the EC50 in experiment [1] is > 50 µM (active).
By IC50 is commonly meant the concentration needed to halve the response being measured. For `COC(=O)c1c(-c2ccc(C)cc2)csc1NC(=O)C1CC=CCC1C(=O)O` (configuration not stated), the IC50 at Leucine aminopeptidase was 1.2 µM (active); at Aspartyl aminopeptidase it was > 73.5 µM (not active); against Procathepsin L, > 59.6 µM (not active).
As a reminder, the AC50 is the concentration giving half of the maximal activity seen. As for `CCOc1ccc(C(=O)Nc2cccc(C)n2)cc1`, in [2], the AC50 was 19.3 µM (active).
For `O=S(=O)(c1ccc(NC(=S)NN=C(C2CC2)C2CC2)cc1)N1CCOCC1`, in experiment [3], the IC50 was > 20 µM (inactive).
On to `CCOc1ccc(C2CC(=O)NC(SCC(=O)OC)=C2C#N)cc1` (configuration not stated), for which, in [1], the EC50 was > 50 µM (active).
On to `O=C(NCC1CC1)c1cc([N+](=O)[O-])cc([N+](=O)[O-])c1`, for which the EC50 in experiment [4] was 0.622 µM (active); in experiment [5], > 60 µM (not active). For the same compound, the AC50 in [2] was 3.55 µM (active).
As to `COc1ccc(NC(=O)CSc2nc(O)cc(=O)n2C)cc1`, the IC50 at Leucine aminopeptidase was 2.59 µM (active); against Aspartyl aminopeptidase, > 73.5 µM (not active); against Procathepsin L, > 59.6 µM (not active).
`O=C(NC(Cc1ccccc1)C(=O)Oc1ccc2c(C(F)(F)F)cc(=O)oc2c1)OCc1ccccc1` (configuration not stated): the IC50 in experiment [6] and in experiment [7] was > 100 µM (inactive) throughout.
On to `O=C1OC(c2ccccc2)=C/C1=C\c1ccc(-c2ccc([N+](=O)[O-])cc2)o1`, for which the IC50 in experiment [8] is 50 µM (inactive).
As for `c1ccc(OCCSc2nnc3sc4ccccc4n23)cc1`, the EC50 in experiment [9] is > 100 µM (not active); with HT-1080, 14.8 µM (active). The half-maximal activity concentration (AC50) with HEK293 is 1.29 µM (active).
For `COc1ccccc1-c1nnc2sc(-c3ccc(N(C)C)cc3)nn12`, the EC50 was < 0.1 µM (active) in experiment [10]; 0.143 µM (active) in experiment [11]; 0.179 µM (active) in the experiment on BJ [12]; 0.29 µM (active) in the experiment “cells”; < 0.1 µM (active) in experiment [13]; 0.637 µM (active) with BJ [14]. In addition, the results for the EC50 in experiment [15] and in experiment [16] were 0.202 µM (active) and 0.179 µM (active), respectively. The IC50 in experiment [17] was > 80 µM (inactive). On CAAX prenyl protease 2, the AC50 is 1.02 µM (active).
`COc1cccc(Cn2cnc3c([N+](=O)[O-])c(C)c(C)cc32)c1`: the IC50 in experiment [3] was > 20 µM (inactive).
For the compound `Cc1cc(NC(=O)c2cc([N+](=O)[O-])ccc2Cl)no1`, in experiment [2], the concentration at half-maximal activity (AC50) is 3.71 µM (active).
`CNc1nc(SC)n(C)c(=O)c1N=O`: in experiment [1], the EC50 is > 50 µM (active).
